Laboratory results published in publication PMC8386105, “A mechanism-inspired UDP-N-acetylglucosamine pyrophosphorylase inhibitor” (RSC Chemical Biology, 2020).

How the values were obtained:
[1] = biological target: T1, UDP-N-acetylglucosamine pyrophosphorylase (AfUAP1) (Aspergillus fumigatus, UniProt Q4WAR0); experiment: HPAEC assay of UDP-GlcNAc formation by recombinant enzyme; type: biochemical
T1 construct: gene AFUA_7G02180
T1 sequence (Q4WAR0 1-509): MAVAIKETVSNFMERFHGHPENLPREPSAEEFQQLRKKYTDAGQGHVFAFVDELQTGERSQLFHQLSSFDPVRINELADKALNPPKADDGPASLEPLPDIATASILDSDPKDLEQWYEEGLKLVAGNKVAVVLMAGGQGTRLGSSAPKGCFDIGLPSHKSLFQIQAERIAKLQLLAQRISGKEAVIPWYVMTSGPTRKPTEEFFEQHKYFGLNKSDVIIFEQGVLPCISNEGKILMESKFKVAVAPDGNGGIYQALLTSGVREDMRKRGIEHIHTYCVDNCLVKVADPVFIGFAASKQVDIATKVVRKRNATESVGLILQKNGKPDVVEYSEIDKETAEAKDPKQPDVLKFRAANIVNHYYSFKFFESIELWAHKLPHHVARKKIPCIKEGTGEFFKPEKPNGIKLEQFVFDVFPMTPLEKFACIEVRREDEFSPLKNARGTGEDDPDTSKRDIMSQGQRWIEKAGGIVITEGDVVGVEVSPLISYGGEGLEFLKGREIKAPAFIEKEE

[2] = biological target: T1, UDP-N-acetylglucosamine pyrophosphorylase (AfUAP1)

Row | SMILES | IC50 [1] | X-ray crystal structure, 1.75 Å (PPi and Mg2+ soak) [2]
1 | O=c1ccn([C@@H]2O[C@H](COP(=O)(O)CP(=O)(O)OP(=O)(O)O)[C@@H](O)[C@H]2O)c(=O)[nH]1 [compound 5, meUTP] | 115 ± 40 µM | –
2 | O=P(O)(O)OP(=O)(O)O [pyrophosphate] | – | is tethered by interactions with positively charged residues, such as Arg141, Lys437 and Lys148
